Among the data in PubChem BioAssay (NCI) are TGI and GI50 values, retold here.

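48-hour exposure; five concentrations; linearly interpolated endpoints. At the GI50, growth is halved. TGI: concentration producing complete growth inhibition.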 Where only a bound is given, the exact number is not on record here.

Holding throughout (experiment): NCI anticancer screen, dose series, 48 h
The test system of experiment [1] is OVCAR-4 ovarian.
Experiment [2] relates to NCI-H522 lung.
Experiment [3] concerns TK-10 renal.
The subject of experiment [4] is SN12C renal.
Experiment [5] has as its system OVCAR-3 ovarian.
Experiment [6] relates to SK-OV-3 ovarian.
Experiment [7] relates to OVCAR-8 ovarian.
The test system of experiment [8] is MOLT-4 leukemia.
Experiment [9] relates to PC-3 prostate.
Experiment [10] relates to MDA-MB-435.

`O=C(CCCNC(=O)OCc1ccccc1)OCc1ccc2c(c1)C(=O)c1ccccc1C2=O`: the TGI in experiment [1] is above 100 µM; in experiment [2] it was above 100 µM; in experiment [3] it was above 100 µM; in experiment [4], above 26 µM; in experiment [5] it was above 100 µM; in experiment [6], 79 µM. In addition, the values for the TGI in experiment [7] and in [8] were above 56.2 µM and above 100 µM, respectively.

On to `CN(/N=C/c1ccnc2ccccc12)c1ccc([N+](=O)[O-])cc1[N+](=O)[O-]`, for which the TGI in experiment [1], in experiment [2], in [3], in [4], in experiment [5] and in experiment [6] was above 100 µM in each case. Also, the TGI in experiment [7] and in experiment [8] was above 100 µM throughout.

With `O=C(N/C(=C\c1ccc(Br)cc1)c1nc2ccccc2s1)c1ccccc1`, the TGI in experiment [1], in experiment [2], in [3], in experiment [4], in [5] and in experiment [6] was above 100 µM in each case. Besides, the TGI in experiment [7] and in experiment [8] was above 100 µM each time.

As to `CC(=O)OCC(OC(C)=O)C(OC(C)=O)C(OC(C)=O)C(=O)CNn1c(-c2ccccc2)nc2ccc(Br)cc2c1=O` (configuration not stated), the TGI in experiment [1], in experiment [2], in experiment [4], in experiment [5], in experiment [6] and in experiment [7] was above 100 µM each time. In addition, the TGI in experiment [8] was above 100 µM.

For the compound `CC(C)CC(CNC(Cc1ccc(Cl)cc1)C(N)=O)NC(=O)C(Cc1cnc[nH]1)NC(=O)CNC(=O)C(NC(=O)C(C)NC(=O)C(Cc1c[nH]c2ccccc12)NC(=O)C(CCC(=O)O)NC(=O)C(N)Cc1ccccc1)C(C)C` (configuration not stated), the TGI in experiment [1], in experiment [4], in [5], in experiment [6], in [7] and in experiment [8] was above 133 µM throughout.

In the case of `Cc1[nH]nc2c1N=C(c1ccccc1F)c1cc(C#N)ccc1N2`, the GI50 in experiment [1] was 3.02 µM; in [2] it was 3720 nM; in experiment [3], 1.91 µM; in experiment [4], 3.87 µM; in experiment [5] it was 88.7 nM; in [6], 0.889 µM. Moreover, the GI50 was 4.93 µM in [9], 3.38 µM in experiment [7] and 6.25 µM in [8]. The TGI in [1] was 8.01 µM; in experiment [2], 11.1 µM; in experiment [3] it was 8.73 µM; in experiment [4], 15.1 µM; in experiment [5] it was 8.31 µM; in experiment [6], above 17 µM. The TGI was above 25 µM in [9], 12.3 µM in experiment [7] and above 25 µM in experiment [8].

Take `CC1=Nc2c([nH]c(=S)[nH]c2=O)NC(c2ccc(Cl)c(Cl)c2)C1` (configuration not stated): the TGI in experiment [1] was 57.9 µM; in experiment [2] it was above 100 µM; in [3], above 87.7 µM; in [4], 43.9 µM; in experiment [5], 38.3 µM; in [6], 95.6 µM. The figures for the TGI in experiment [7] and in experiment [8] were 38.2 µM and above 100 µM, respectively.

`CN(C)c1nc(N(C)C)n2nc(-c3ccccc3[N+](=O)[O-])nc2n1`: the TGI in [1], in [2], in experiment [3], in experiment [4], in experiment [5] and in [6] was above 100 µM each time. Also, the TGI in [7] and in [8] was above 100 µM throughout.

On to `COc1ccc(/C(Cl)=C(\C=O)c2ccc(Br)cc2)cc1OC`, for which the TGI in [1], in experiment [2], in experiment [3], in [4], in experiment [5] and in [6] was above 100 µM in each case. The TGI in [7] and in experiment [8] was above 100 µM in each case.

On to `O=C(O)c1ccc(N=Nc2cc(S(=O)(=O)O)c3cccnc3c2O)cc1`, for which the TGI in [1], in [3], in experiment [4], in experiment [5], in experiment [6] and in [7] was above 100 µM throughout. Moreover, in experiment [8], the TGI is above 100 µM.

Turning to `OCC(O)COc1c(Cl)ccc(Cl)c1Cl` (configuration not stated), the TGI in experiment [1], in [2], in [3], in experiment [4], in experiment [5] and in experiment [6] was above 100 µM throughout. Also, the TGI in experiment [7] and in [8] was above 100 µM each time.

In the case of `CCN(CC)CCCCCOc1cc(O)c2c(=O)cc(-c3ccccc3)oc2c1`, the GI50 in experiment [1] is 7.27 µM; in experiment [2], 2230 nM; in [3] it was 7.1 µM; in [4], 4.78 µM; in experiment [5], 1930 nM; in experiment [6] it was 6.95 µM. For the same compound, the GI50 is 3.18 µM in experiment [10], 11.5 µM in experiment [7] and 3.76 µM in [8]. In addition, the TGI was 20.5 µM in [1]; 5.13 µM in [2]; 27.1 µM in [3]; 17 µM in [4]; 4.94 µM in experiment [5]; 17.8 µM in [6]. The TGI in experiment [10] is 7.63 µM; in [7], 25.5 µM; in [8], 11.2 µM.

In the case of `CCOC(=O)CC1=NC(=Nc2cc(Cl)ccc2Cl)SC1`, the TGI in [1], in experiment [2], in experiment [3], in experiment [4], in [5] and in [6] was above 100 µM in each case. For the same compound, the TGI in [7] is above 100 µM.

`C[C@H]1COC2(c3ccccc3)CCC(=O)N12` (some centres not stated): the TGI in experiment [1], in experiment [3], in experiment [4], in [5] and in [7] was above 100 µM throughout.

For the compound `COC(=O)C1=C(c2cc(OC)c(OC)c(OC)c2)OC(c2cc(OC)c(OC)c(OC)c2)C1COC(C)=O` (configuration not stated), the TGI in experiment [1], in experiment [2], in [3], in experiment [4], in experiment [5] and in experiment [6] was above 100 µM each time. Besides, the TGI in experiment [7] is above 100 µM; in experiment [8], 58.7 µM.
